Data as given in patent US4425360A, “Pharmacologically active novel O-substituted pyruvic acid oximes” (Boehringer Mannheim GmbH, priority 1980, dated 1984).

Assays:
[1] = test system: blood-glucose concentration; assay: Threshold dose of blood-glucose-lowering activity in fasting guinea pigs (i.p.); assay type: in vivo, guinea pig; details: Cavia porcellus, ip
Procedure: 1. Test procedure for determination of threshold dose
Fasting guinea pigs were used as experimental models to determine the threshold dose of the blood-glucose-lowering activity of the substances to be investigated. Food was withheld from the animals used in the investigations for 16 hours prior to the start of the tests. The animals remained without food for the entire testing period but had free access to drinking water.
The substances were administered intraperitoneally as a solution of the potassium salt at pH 7.4.
A parallel control group was given an 0.9% NaCl solution.
The drawing of blood for determination of the glucose concentrations was effected immediately prior to administration of the substances and at one-hour intervals up to the fourth hour after the administration of the substances. To this end, an ear vein was carefully punctured with a No. 18 cannula, and the drops of blood issuing were picked up with a 10 μl capillary.
The blood-glucose concentration was determined in the hemolyzate by the specific hexokinase method. To this end, the 10 μl blood sample was pipetted into a stabilizer solution containing digitonin as hemolysis accelerator and maleinimide as […]. Following this, an aliquot was taken from the hemolyzate so obtained and determined by the hexokinase method on an LKB 8600 (made by LKB, Bromma, Sweden).
The dose which with the specified number of test animals per dose group (N=4) was just large enough to produce a significant lowering of fasting glycemia (p>0.05) was adopted as threshold dose.

[2] = test system: glucose resorption; assay: Resorption-inhibiting activity: oral glucose loading in fasting guinea pigs; assay type: in vivo, guinea pig; details: Cavia porcellus, ip, 1 g glucose p.o., AUC difference vs control; for inhibition in vivo at 40 mg/kg: dose 40 mg/kg i.p.; for inhibition in vivo at 25 mg/kg: dose 25 mg/kg i.p.; for inhibition in vivo at 20 mg/kg: dose 20 mg/kg i.p.
Procedure: 2. Test procedure for determination of resorption-inhibiting activity
To determine the effect on glucose resorption, oral glucose loading was effected. To this end, the substance to be tested was administered intraperitoneally as potassium salt, as described, to a group of ten fasting guinea pigs. At the same time, 1 g glucose was orally administered to the animals as a 20% solution by means of an esophageal bougie.
After a preliminary value had been established, blood was taken from the animals at close intervals (20 min. to 200 min.) for determination of the glucose concentrations, as described.
A parallel control group was also given 1 g glucose p. o., and intraperitoneally a corresponding amount of 0.9% NaCl solution.
The blood-glucose concentration was determined in the hemolyzate by the hexokinase method, as described.
With regard to glucose resorption, the area under the concentration/time curve, calculated by means of the empirical trapeze formula, served as quantity to be measured. The difference in the area between the control and test groups, expressed in percent, was used as a measure for the inhibition of glucose resorption.

[3] = potassium salt pH 7.4, N=4, remark printed: weak
[4] = potassium salt pH 7.4, N=4 per dose group, smallest dose significantly lowering fasting glycemia

Structure (SMILES) | inhibition in vivo at 40 mg/kg [2] [%] | minimal effective dose [1, 4] [mg/kg] | also measured
CC(=NOCC=Cc1ccccc1Cl)C(=O)O [Example 4a, 2-(2-chlorocinnamyloxyimino)-propionic acid] | 41 |  | minimal effective dose [1, 3]: 50 mg/kg
CC(=NOCC=Cc1cc(Cl)ccc1C)C(=O)O [Example 5f, 2-(5-chloro-2-methylcinnamyloxyimino)-propionic acid] | 33 | 50 | 
CC(=NOCC=Cc1ccccc1)C(=O)N1CCN(C)CC1 [Example 8, 4-[2-(Cinnamyloxyimino)-propionyl]-1-methylpiperazine] | 44 | > 50 | 
CC(=Cc1ccccc1)CON=C(C)C(=O)O [Example 3b, 2-(β-methylcinnamyloxyimino)-propionic acid] | 40 | 50 | 
O=C(O)C=NOCC=Cc1ccccc1 [Example 10, Cinnamyloxyiminoacetic acid] |  | > 50 | inhibition in vivo at 25 mg/kg [2]: 69%
CC(=CCON=C(C)C(=O)O)c1ccccc1 [Example 3, 2-(γ-Methylcinnamyloxyimino)-propionic acid] |  | 50 | inhibition in vivo at 30 mg/kg ([2]; dose 30 mg/kg i.p.): 0%
CC(=NOCCCc1ccccc1)C(=O)[O-].[Na+] [Example 1b, sodium 2-(3-phenylpropyloxyimino)-propionate] |  | 25 to 50 | inhibition in vivo at 20 mg/kg [2]: 39%
CC(=NOCCc1ccccc1)C(=O)O [Example 2a, 2-(2-phenylethyloxyimino)-propionic acid] | 33 | 75 | 
CC(=NOCCOc1ccccc1)C(=O)[O-].[Na+] [Example 1c, sodium 2-(2-phenoxyethyloxyimino)-propionate] | 25 |  | minimal effective dose [1, 3]: 50 mg/kg
CC(=NOCC=Cc1ccc(Cl)cc1)C(=O)O [Example 4b, 2-(4-chlorocinnamyloxyimino)-propionic acid] |  |  | minimal effective dose ([1]; potassium salt pH 7.4, N=4, remark printed: flat D-W curve): 25 to 50 mg/kg; inhibition in vivo at 20 mg/kg [2]: 10%
C=CCON=C(C)C(=O)O [Example 4c, 2-(allyloxyimino)-propionic acid] | 37 | > 50 | 
CC(=NOCC=Cc1ccc(F)cc1)C(=O)O [Example 5, 2-(4-Fluorocinnamyloxyimino)-propionic acid] | 3 | 50 | 
CCC(=NOCC=Cc1ccccc1)C(=O)O [Example 10a, 2-cinnamyloxyiminobutyric acid] |  | 25 | inhibition in vivo at 20 mg/kg [2]: 0%
CC(=NOCC#Cc1ccccc1)C(=O)O [Example 2d, 2-(3-phenyl-2-propynyloxyimino)-propionic acid] | 65 |  | minimal effective dose ([1]; potassium salt pH 7.4, N=4, remark printed: wk. indiv. animals): 25 mg/kg
CC(=NOCC=Cc1ccccc1)C(=O)O [Example 3a, 2-cinnamyloxyiminopropionic acid] |  | 25 | inhibition in vivo at 10 mg/kg ([2]; dose 10 mg/kg i.p.): 33%
COc1cccc(C=CCON=C(C)C(=O)O)c1 [Example 5D, 2-(3-methoxycinnamyloxyimino)-propionic acid] |  | 25 | inhibition in vivo at 25 mg/kg [2]: 36%
CC(=NOCC=Cc1cccc(C(F)(F)F)c1)C(=O)O [Example 5a, 2-(3-trifluoromethylcinnamyloxyimino)-propionic acid] | 34 | 50 | 
CC(=NOCC=Cc1cccc(Cl)c1)C(=O)O [Example 4, 2-(3-Chlorocinnamyloxyimino)-propionic acid] |  | 25 | inhibition in vivo at 20 mg/kg [2]: 55%
O=C(O)C(CF)=NOCC=Cc1ccccc1 [Example 9, 2-(Cinnamyloxyimino)-3-fluoropropionic acid] |  | 25 | inhibition in vivo at 20 mg/kg [2]: 26%
